Reference: patent publication US6683069B1, “Methods and compositions for reducing UV-induced inhibition of collagen synthesis in human skin” (Regents of the University of Michigan, priority 1998, dated 2004)

Experiments:
Type I procollagen mRNA = assay: In situ hybridization for Type I procollagen mRNA in biopsies of retinoid-pretreated, UV-exposed human skin; format: in vivo; settings: 0.1% topical
Procedure: (§1) We tested whether retinoids, in particular all-trans retinoic acid, would have any effect on the loss of procollagen mRNA and/or the procollagen proteins in human skin after exposure to UV radiation. (Unless otherwise noted, the retinoic acid used in the experiments described herein was all-trans.) Separate areas of skin from each of our volunteers were treated with either 0.1% retinoic acid in vehicle or with vehicle alone; the vehicle was composed of a mixture of ethanol and polyethylene glycol in a 70:30 volumetric ratio. Thereafter, these areas of skin were exposed to 2 MEDs (typically) of UV radiation and then biopsied at specific times after the exposure; the biopsies were analyzed as described previously. The site of the volunteers' skin to be exposed to UV radiation was treated prior to UV exposure with either the all-trans retinoic acid or the control vehicle. […]
(§2) In Situ Hybridization: Digoxigenin-containing sense and antisense riboprobes to detect human type I and Type III procollagen RNA (mRNA) were synthesized with the use of T3 and T7 ribonucleic acid polymerases. […] Hybridization signals were detected immunohistochemically with the use of alkaline phosphatase-conjugated antidigoxigenin antibody.

[1] = test system: Type I procollagen protein; assay: Immunohistological staining for Type I procollagen protein in biopsies of retinoid-pretreated, UV-exposed human skin; format: in vivo; settings: 0.1% topical
Procedure: as §1, with “previously.” for “previously. The site of the volunteers' skin to be exposed to UV radiation was treated prior to UV exposure with either the all-trans retinoic acid or the control vehicle.”
(§3) Immunohistology: Immunihistology of Type I and Type III pN collagens was performed as has been described by Griffiths, C. […] Type I pN collagen was detected with mouse monoclonal IgG1 antibody (SP1.D8; available from Univ. of Iowa Dept. of Biological Sciences Developmental Studies Hybridoma Bank, Iowa City, Iowa) raised against the aminopropeptide region of human Type I procollagen (Foellmer, H. G., et al., Euro. J. Biochm., 134:183-189 (1983)). Type III pN collagen was detected with affinity-purified rabbit polyclonal antibody to aminopropeptide of Type III procollagen (identical to that used for Western analysis). […]

[2] = test system: Type I procollagen and pN collagen precursor protein; assay: Western analysis of Type I procollagen protein and pN precursor protein in retinoic acid-pretreated, UV-exposed human skin; format: in vivo; settings: 0.1% topical, FIG. 12
Procedure: We tested whether retinoids, in particular all-trans retinoic acid, would have any effect on the loss of procollagen mRNA and/or the procollagen proteins in human skin after exposure to UV radiation. (Unless otherwise noted, the retinoic acid used in the experiments described herein was all-trans.) Separate areas of skin from each of our volunteers were treated with either 0.1% retinoic acid in vehicle or with vehicle alone; the vehicle was composed of a mixture of ethanol and polyethylene glycol in a 70:30 volumetric ratio. Thereafter, these areas of skin were exposed to 2 MEDs (typically) of UV radiation and then biopsied at specific times after the exposure; the biopsies were analyzed as described previously. The site of the volunteers' skin to be exposed to UV radiation was treated prior to UV exposure with either the all-trans retinoic acid or the control vehicle. […] Nevertheless, it should be understood that a period of pretreatment with retinoid more than eight and less than twenty-four hours before UV exposure may likely be sufficient to prevent the reduction in collagen biosynthesis we have observed. Furthermore, it should be understood that in all of the following examples treatment with a retinoid (e.g., “retinoic acid-treated”) or the vehicle (e.g.,. “vehicle-treated”) should each be understood as pretreatment 24 hours before UV exposure. […]
(§4) Western analysis of proteins. Type I procollagen and pN collagen precursor protein, as well as Type III procollagen were detected in skin extracts by Western analysis as described by G. J. Fisher et al. (in “Immunological identification and functional quantitation of retinoic acid and retinoid X receptor proteins in human skin,” J. Biol. Chem., 269:20629-20635 (1994)).
(§5) Immunoreactive proteins were visualized by enhanced chemiluminescence detection and quantified by laser densitometry, or by enhanced chemifluorescence detection and quantified by a Storm imager (Molecular Dynamics, Sunnyvale, Calif.).

[3] = test system: Type III procollagen mRNA; assay: In situ hybridization for Type III procollagen mRNA in biopsies of retinoid-pretreated, UV-exposed human skin; format: in vivo; settings: 0.1% topical, pretreatment 24 h before UV; FIG. 13D
Procedure: as §1, §2

[4] = test system: Type III procollagen protein; assay: Immunohistological staining for Type III procollagen protein in biopsies of retinoid-pretreated, UV-exposed human skin; format: in vivo; settings: 0.1% topical, pretreatment 24 h before 2 MEDs UV, biopsy 24 h after exposure; FIG. 14D
Procedure: as §1, with “previously.” for “previously. The site of the volunteers' skin to be exposed to UV radiation was treated prior to UV exposure with either the all-trans retinoic acid or the control vehicle.”
as §3

[5] = test system: Type III procollagen protein and pN collagen precursor protein; assay: Western analysis of Type III procollagen protein and pN precursor protein in retinoic acid-pretreated, UV-exposed human skin; format: in vivo; settings: 0.1% topical, FIG. 15
Procedure: as §1, with “previously.” for “previously. The site of the volunteers' skin to be exposed to UV radiation was treated prior to UV exposure with either the all-trans retinoic acid or the control vehicle.”
as §4, §5

soluble collagen = assay: Soluble collagen (hydroxyproline content) in retinoid-pretreated, UV-exposed human skin in vivo; settings: 0.1% topical
Procedure: We tested whether retinoids, in particular all-trans retinoic acid, would have any effect on the loss of procollagen mRNA and/or the procollagen proteins in human skin after exposure to UV radiation. (Unless otherwise noted, the retinoic acid used in the experiments described herein was all-trans.) Separate areas of skin from each of our volunteers were treated with either 0.1% retinoic acid in vehicle or with vehicle alone; the vehicle was composed of a mixture of ethanol and polyethylene glycol in a 70:30 volumetric ratio. Thereafter, these areas of skin were exposed to 2 MEDs (typically) of UV radiation and then biopsied at specific times after the exposure; the biopsies were analyzed as described previously. The site of the volunteers' skin to be exposed to UV radiation was treated prior to UV exposure with either the all-trans retinoic acid or the control vehicle. […] Nevertheless, it should be understood that a period of pretreatment with retinoid more than eight and less than twenty-four hours before UV exposure may likely be sufficient to prevent the reduction in collagen biosynthesis we have observed. Furthermore, it should be understood that in all of the following examples treatment with a retinoid (e.g., “retinoic acid-treated”) or the vehicle (e.g.,. “vehicle-treated”) should each be understood as pretreatment 24 hours before UV exposure.
We also assayed the biopsies from our volunteers for soluble collagen (measured as hydroxyproline content) in vehicle- and retinoid-treated skin, both before and after UV exposure. […] After UV exposure, the vehicle-treated skin (VEH+UV) had only about 40% of the soluble collagen as was present prior to exposure. The retinoid-treated area (RA+UV) still had reduced amounts of soluble collagen when compared with skin prior to UV exposure, yet the levels were almost twice what was found in the vehicle-treated/UV-exposed skin.
As mentioned above, the area of the volunteers' skin to be treated with a retinoid prior to UV exposure was pretreated 24 hours prior to exposure. We pretreated certain volunteer's sun-protected skin with 0.1% all trans retinoic acid 8 hours prior to exposure to 2 MEDs of UV radiation. […] Thus, as mentioned above, to prevent UV-induced loss of collagen synthesis using a retinoid, pretreatment 24 hours before exposure yields the desired prophylactic effect, whereas pretreatment 8 hours before exposure yields no significant prophylaxis.
Hydroxyproline Analysis: hydroxyproline analysis using the Amino Acid Analyzer Model 420H (Applied Biosystems, Foster City, Calif.) automates precolumn phenylthiocarbamyl-amino acid (PTC-AA) analysis. The Model 420H analyzer first hydrolyzes proteins to liberate free amino acids. Once hydrolyzed, the free amino acids are derivatized with phenylisothiocynanate (PITC) to form PTC-AA derivatives. A reverse-phase column in a temperature-controlled oven separates the PTC-AAs. Concentration of hydroxyproline in the skin extract was determined based upon a hydroxyproline standard.

[6] = pretreatment 24 h before 2 MEDs UV, biopsy 24 h after exposure

Q: How did the “Type I procollagen mRNA expression in fibroblasts vs vehicle-treated skin, prior to UV exposure” value (Type I procollagen mRNA; 24 h after treatment, no UV, FIG. 10B vs 10A) turn out when CC1=C(/C=C/C(C)=C/C=C/C(C)=C/C(=O)O)C(C)(C)CCC1 [all-trans retinoic acid] was run?
A: The value was “essentially the same in both”.

Q: What about the “Type I procollagen mRNA expression after UV exposure” value (Type I procollagen mRNA; pretreatment 24 h before UV, FIG. 10D) of the same molecule?
A: Its value is “does not appear to evidence any loss in the mRNA signalling”.

Q: And the “Type I procollagen protein staining vs vehicle-treated skin, prior to UV exposure” value ([1]; no UV, FIG. 11B vs 11A)?
A: Its value is “no appreciable difference”.

Q: What about the “Type I procollagen protein staining after UV vs before UV exposure” value ([1]; pretreatment 24 h before 2 MED UV, biopsy 24 h after exposure, FIG. 11D) of the same molecule?
A: The value was “comparable, though slightly reduced”.

Q: And the “Amounts of Type I procollagen and pN precursor protein vs vehicle-treated skin, unexposed” value ([2]; no UV, vehicle normalized to 1.0)?
A: The value was “essentially the same amounts”.

Q: What about the “Type I procollagen protein after UV, relative to control” value [2, 6] of the same molecule?
A: The value was “greater than 80 % of the control”.

Q: And the “pN collagen precursor protein (Type I) after UV, relative to control” value [2, 6]?
A: Its value is “greater than 80 % of the control”.

Q: And the “Reduction in expression of Type III procollagen mRNA after UV exposure” value [3]?
A: The value was “little, if any, reduction”.

Q: And the “Type III procollagen protein staining after UV vs prior to UV exposure” value [4]?
A: The value was “almost the same pattern and intensity of staining”.

Q: And the “Amounts of Type III procollagen protein and pN precursor protein vs vehicle-treated skin, prior to UV exposure” value ([5]; no UV)?
A: The value was “essentially the same amounts”.

Q: And the “Amounts of Type III procollagen protein and pN precursor protein after UV vs control and retinoic acid-treated areas prior to exposure” value ([5]; pretreatment 24 h before 2 MEDs UV, RA+UV)?
A: The value was “essentially the same amounts”.

Q: What about the “Soluble collagen (hydroxyproline content) vs vehicle-treated skin, prior to UV exposure” value (soluble collagen; 24 h pretreatment, no UV, FIG. 16) of the same molecule?
A: The value was “about the same”.

Q: What about the “Soluble collagen (hydroxyproline content) vs vehicle-treated skin, without UV exposure” value (soluble collagen; after 8 hours, no UV, FIG. 17) of the same molecule?
A: Its value is “the same”.

Q: And the “Soluble collagen (hydroxyproline content) 24 hours after UV exposure vs vehicle-treated skin” value (soluble collagen; pretreatment 8 hours before 2 MEDs UV, FIG. 17)?
A: The value was “essentially the same”.

Q: What about the “Soluble collagen (hydroxyproline content) after UV, relative to vehicle-treated/UV-exposed skin” value (soluble collagen; pretreatment 24 h before UV, RA+UV, FIG. 16) of the same molecule?
A: Its value is “almost twice”.

Q: And the “Prevention of UV-induced reduction in collagen biosynthesis” value (soluble collagen; pretreatment 24 hours before UV exposure)?
A: The value was “a reduction in collagen biosynthesis was prevented”.

Q: What about the “Prevention of UV-induced reduction in collagen synthesis” value (soluble collagen; pretreatment eight hours before UV exposure) of the same molecule?
A: The value was “did not appear to significantly prevent reduction in collagen synthesis”.
